Laboratory results taken from US10251408B2, “Catechin function enhancement method” (KYUSHU UNIVERSITY, NATIONAL UNIVERSITY CORPORATION, priority 2014, dated 2019).

What was measured:
[1] = system: tail suspension test-induced disuse amyotrophy in mice; assay: Tail suspension test-induced disuse amyotrophy (quadriceps femoris weight); format: in vivo, mouse; settings: C57BL/6J mice; 5 mg/kg intragastric once a day; tail suspension for 10 days from day 7; FIG. 4
Method: Male C57BL/6J mice at 12 weeks of age were divided into 5 groups such that the average body weight was equal in all groups, i.e., a GR (ground) group, a TS (tail suspension) group, an EGCG group, an eriodictyol group, and an EGCG+eriodictyol group. From the beginning of grouping, the GR and TS groups received physiological saline, the EGCG group received EGCG and the eriodictyol group received eriodictyol (5 mg/kg) by intragastric administration, while the EGCG+eriodictyol group received EGCG and eriodictyol (5 mg/kg) by intragastric administration through a sonde. For 7 days from the beginning of grouping, all the groups were kept under normal conditions, and the TS, EGCG, eriodictyol, and EGCG+eriodictyol groups were then subjected to a tail suspension test. After the tail suspension test for 10 days (at 17 days after initiation of the experiment), all the mice were sacrificed by abdominal aortic puncture under isoflurane anesthesia, and the quadriceps femoris was excised from each mouse and measured for its weight. Each sample was administered daily throughout the experimental period. […] At 10 days after starting the tail suspension test, the mice were sacrificed by abdominal aortic puncture under isoflurane anesthesia, and the quadriceps femoris was excised from each mouse and measured for its weight.

[2] = system: Human multiple myeloma cell line U266; assay: Cancer cell apoptosis induction, Annexin V/PI flow cytometry; format: cell-based; settings: EGCG and eriodictyol 5 μM each, 96 hours, FIG. 1
Method: Human multiple myeloma cell line U266 was subcultured and maintained in RPMI 1640 medium supplemented with 10% fetal bovine serum (FCS) under conditions of 37° C. and water vapor-saturated 5% CO2. The cells were maintained in the logarithmic growth phase. The RPMI 1640 medium used for culture was prepared as follows: per liter of ultrapure water, RPMI 1640 medium (10.4 g), HEPES (2.38 g), injectable penicillin G potassium (100,000 units), streptomycin sulfate injectable (100 mg) and NaHCO3 (2.0 g) were suspended and then filter-sterilized.
Then, the RPMI 1640 medium was supplemented with FCS and used for cell culture. To examine the apoptosis induction effect on human multiple myeloma cell line U266 produced upon combination of EGCG and eriodictyol, double staining was performed with Annexin V and PI. For use as a propidium iodide (PI) stain solution, PI (Sigma) was suspended in PBS at a concentration of 50 μg/mL. […]
Then, the fully suspended cell culture was centrifuged at 300×g for 5 minutes to remove the supernatant, and then suspended with the Annexin V binding buffer, counted with a hemacytometer, centrifuged again at 300×g for 5 minutes and then suspended with the Annexin V binding buffer. […] After compensation, the Annexin V Alexa Fluor 488 conjugate was measured at FL 1 and cells determined to be positive were regarded as apoptotic cells. […]

[3] = system: high-fat high-sucrose diet-fed obese model mice; assay: High-fat high-sucrose diet-fed mice: body weight, serum total cholesterol, LDL; format: in vivo, mouse; settings: C57BL/6J mice, Yabukita 0.2% and/or eriodictyol 0.45 g/kg diet, 8 weeks, FIG. 5
Description: Male C57BL/6J mice at 12 weeks of age were preliminarily kept for 1 week and then divided into 5 groups such that the average body weight was equal in all groups, i.e., a control (AIN-93G-based diet) group, a HF/HS (high-fat high-sucrose diet) group, a Yabukita (0.2%) (HF/HS+Yabukita) group, an eriodictyol (HF/HS+eriodictyol) group, and a Yabukita+eriodictyol (HF/HS+Yabukita+eriodictyol) group. A feed supplemented with Yabukita (0.2%) and eriodictyol (0.45 g/kg diet) was given to the mice. The feed was given in an amount of 4 g/day and the mice were kept for 8 weeks under ad libitum drinking conditions. After being fasted for 16 hours, the mice were sacrificed by abdominal aortic puncture under isoflurane anesthesia. The collected blood samples were allowed to stand at 37° C. for 2 hours to cause coagulation and then centrifuged at 4° C. at 2000×g for 15 minutes to collect serum fractions. The values of serum total cholesterol and LDL were measured. […] Yabukita and eriodictyol were examined for their effect on obesity in high-fat high-sucrose diet-fed obese model mice. Male C57BL/6J mice at 12 weeks of age were preliminarily kept for 1 week and then divided into the respective groups such that the average body weight was equal in all groups. Each feed was given in an amount of 4 g/day and the mice were kept for 8 weeks under ad libitum drinking conditions. After being measured for their body weight, the mice were fasted for 16 hours and then sacrificed by abdominal aortic puncture under isoflurane anesthesia. Blood samples collected by puncture were allowed to stand at 37° C. for 2 hours to cause coagulation and then centrifuged at 4° C. at 2000×g for 15 minutes to collect serum fractions. The values of serum total cholesterol and LDL were measured.

## O=C1C[C@@H](c2ccc(O)c(O)c2)Oc2cc(O)cc(O)c21 [eriodictyol]
[1]
  effect on amyotrophy (quadriceps femoris weight): no effect on amyotrophy
[2]
  effect on the cancer cell apoptosis induction effect of EGCG (Annexin V positive cells): enhance the apoptosis induction effect of EGCG
[3]
  high-fat high-sucrose diet-induced increase in body weight: no effect
  high-fat high-sucrose diet-induced increase in serum cholesterol value: no effect
[3]; serum
  high-fat high-sucrose diet-induced increase in LDL value: no effect
